Consider six compounds from patent US20240245607A1, “Microencapsulation of Active Agents” (Temple University-Of The Commonwealth System of Higher …, priority 2016, published 2024).

One data set has as its system sweet taste. Conditions: cited from earlier work.
A short description of data set [1]: IR spectra of encapsulated compounds in stearic acid microspheres (degradation). It counts as physicochemical. How it is done:
Bitter taste stimuli are prepared in a similar manner, except at a pH of 8.0. Along with stearic acid, SOA is melted at ˜100° C., quinine HCl·7H2O is melted at ˜165° C., quinine HCl·2H2O is melted at 116° C., or n-propylthiouracil (PROP) is melted at ˜150° C. before addition to a rapidly stirred buffer solution. […] The quinine content of microspheres is measured by fluorescence emission or by absorbance in the ultra-violet region. SOA content of microspheres is measured by the anthrone reaction, and PROP and PTC content of microspheres is measured by UV absorption at 275 nm.
After drying, loaded microspheres are dissolved in a solvent such as acetonitrile or acetonitrile/HEPES, and the encapsulated compound is assayed by absorption spectroscopy, fluorescence emission, or infra-red spectroscopy. The melting point is then measured in order to identify the melting point range of the microspheres. If needed, these lipid microspheres could be embedded within pullulan-based films for long term storage. Stearic acid microspheres encapsulate 2,4-D or DCMU (Diuron) at a weight-to-weight ratio of approximately 15:I. In addition, the melting point of lipid microspheres is lowered to 38-40° C. for the controlled release of these compounds from microspheres. The melting temperature range varies from 8 to 10° C.

Counter-ions that a name gives are not always drawn. Like-named read-outs stand apart in the source and are kept apart here.

Regarding `OC[C@H]1O[C@H](O[C@]2(CCl)O[C@H](CCl)[C@@H](O)[C@@H]2O)[C@H](O)[C@@H](O)[C@H]1Cl` [sucralose], in the data set on sweet taste, the “sweetness compared with sucrose” value was “approximately 600 times”. For the same compound, the “degradation of components by IR spectra” value in data set [1] is “no components were graded”.
On to `CC(=O)OC[C@H]1O[C@@](COC(C)=O)(O[C@H]2O[C@H](COC(C)=O)[C@@H](OC(C)=O)[C@H](OC(C)=O)[C@H]2OC(C)=O)[C@@H](OC(C)=O)[C@@H]1OC(C)=O` [SOA, sucrose octaacetate], for which the “degradation of components by IR spectra” value in data set [1] is “no components were graded”.
Regarding `CN(C)C(=O)Nc1ccc(Cl)c(Cl)c1` [DCMU, diuron], in data set [1], the “degradation by IR data” value was “undegraded”.
`CCCc1cc(=O)[nH]c(=S)[nH]1` [PROP, n-propylthiouracil]: in data set [1], the “degradation of components by IR spectra” value is “no components were graded”.
For the compound `O=[N+]([O-])c1ccc(O)c([N+](=O)[O-])c1` [2,4-dinitrophenol], in data set [1] (after encapsulation within stearic acid microspheres), the “degradation by IR data” value is on record as “not degraded”.
Turning to `C=C[C@H]1C[N@@]2CC[C@H]1C[C@H]2[C@H](O)c1ccnc2ccc(OC)cc12` [quinine, quinine HCl], the “degradation of components by IR spectra” value in data set [1] was “no components were graded”.
